Patent publication US20030129180A1, “Products and methods for treating microbial infections” (The Proctor & Gamble Company, priority 2001, published 2003)

Key:
[1] = system: T. mentagrophytes; test: Relative growth of pre-germinated arthrospores in ESD broth tubes; assay type: cell-based; set-up: key: −: - (no growth); relative scale from - (no growth) to +++ (maximal growth); relative scale from - (no growth) to +++ (maximal growth); +++ (maximal growth); conditions: clotrimazole control, 20 μ/ml per tube, 26° C.
Procedure: (§1) Purified arthrospore suspensions of T. mentagrophytes or T. rubrum (prepared as per L. R. Wright et al., 1983, J. Antimicrob. Chemotherapy 12:317-327), diluted to a concentration of 1×10^6 cfu/ml in Emmon's modification of Sabouraud Dextrose Broth (ESD—R. Atlas, 1997, Handbook of microbiological media, CRC Press Inc., Boca Raton, Fla.), are incubated for 6 hours at 26° C. or 30° C., respectively, to pre-germinate spores. Enzyme preparations of chitinase (Sigma Cat. No. C-1525) and β1-1,3-glucanase (Sigma Cat. No. L-2524) are diluted into 3 ml volumes of ESD in capped glass tubes, to final concentrations of each enzyme ranging from 0 to 100 ppm. Clotrimazole controls are also prepared, to a final concentration of 20 μ/ml per tube.
(§2) Each tube is then inoculated with 10 μl (1×10^4 cfu) of either the T. mentagrophytes or T. rubrum pre-germinated arthrospore suspension, followed by incubation on a shaker at 200 rpm, at 26° C. or 30° C., respectively, for a total of 41 hours.

[2] = system: T. rubrum; test: as above; assay type: cell-based; set-up: key: −: - (no growth); relative scale from - (no growth) to +++ (maximal growth); relative scale from - (no growth) to +++ (maximal growth); +++ (maximal growth); conditions: clotrimazole control, 20 μ/ml per tube, 30° C.
Procedure: as §1, §2

Clc1ccccc1C(c1ccccc1)(c1ccccc1)n1ccnc1 [clotrimazole]
−: Growth, T. mentagrophytes, 18 hours ([1]; 18 hours) | Growth, T. mentagrophytes, 41 hours ([1]; 41 hours) | Growth, T. rubrum, 18 hours ([2]; 18 hours) | Growth, T. rubrum, 41 hours ([2]; 41 hours)
